pIC50: −log10 of the molar value.

Sequence of MLK-3 (Q16584 whole entry): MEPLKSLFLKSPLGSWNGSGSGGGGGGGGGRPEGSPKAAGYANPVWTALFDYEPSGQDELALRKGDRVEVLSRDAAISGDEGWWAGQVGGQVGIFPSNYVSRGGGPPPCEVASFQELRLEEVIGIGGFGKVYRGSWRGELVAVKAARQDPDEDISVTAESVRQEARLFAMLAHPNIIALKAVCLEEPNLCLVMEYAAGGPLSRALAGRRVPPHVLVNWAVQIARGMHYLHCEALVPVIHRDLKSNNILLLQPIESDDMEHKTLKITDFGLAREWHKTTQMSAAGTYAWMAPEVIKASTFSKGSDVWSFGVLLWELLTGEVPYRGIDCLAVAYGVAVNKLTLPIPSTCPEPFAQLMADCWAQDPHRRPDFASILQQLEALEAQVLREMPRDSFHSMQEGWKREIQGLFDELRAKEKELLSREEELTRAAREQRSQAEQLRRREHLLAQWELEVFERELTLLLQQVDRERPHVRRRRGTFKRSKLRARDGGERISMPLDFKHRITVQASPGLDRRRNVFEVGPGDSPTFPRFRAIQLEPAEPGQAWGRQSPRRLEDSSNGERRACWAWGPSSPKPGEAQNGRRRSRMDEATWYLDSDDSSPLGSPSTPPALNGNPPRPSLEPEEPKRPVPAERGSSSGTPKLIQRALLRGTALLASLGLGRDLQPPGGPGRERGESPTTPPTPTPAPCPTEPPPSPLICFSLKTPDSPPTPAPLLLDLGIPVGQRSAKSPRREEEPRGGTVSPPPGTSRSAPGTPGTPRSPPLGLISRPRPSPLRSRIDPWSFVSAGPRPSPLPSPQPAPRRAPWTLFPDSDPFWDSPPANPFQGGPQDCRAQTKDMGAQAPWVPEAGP

This assay concerns the target MLK-3 (Homo sapiens, UniProt Q16584). Briefly: Biochemical assay for the inhibition of kinase activity for MLK-3 (33P-ATP, HOTSPOT filter binding). The note with it: activated MLK-3 20 nM, ATP 50 μM, myelin basic protein 20 μM, 20 minutes room temperature. The method, then:
Biochemical Assay for the Inhibition of Kinase Activity for MLK-3: Myelin basic protein (20 μM final concentration) is dissolved in 20 mM Hepes (pH 7.5) containing […], […], 0.02% Brij35, 0.02 mg/ml BSA, 0.1 μM Na3VO4, 2 mM DTT, and 1% DMSO. Activated MLK-3 is added and mixed (20 nM final concentration), and inhibitors are added in DMSO. ^33P-ATP (specific activity 500 μCi/μL) is delivered into the reaction mixture to initiate the reaction (ATP concentration is 50 μM) and the mixture is incubated at room temperature for 20 minutes. % Activity is determined using a proprietary HOTSPOT™ microfluidic filter binding technology. See, Expert Opin. Drug Discov. 2008 June; 3(6): 607-621.
Usually pIC50 stands for the IC50 on a negative log10 scale, so that one unit is a factor of ten. Low values mean a large IC50, high ones a small IC50. Take `Cc1nc2ccc(N[C@H]3CC[C@H](O)CC3)nn2c1-c1cc2ccccc2s1` [Compound 111, 4-(3-(benzo[b]thiophen-2-yl)-2-methylimidazo[1,2-b]pyridazin-6-ylamino)cyclohexanol]: the pIC50 is above 5.30.
To `OCCN1CCN(c2ccc3ncc(-c4cc5ccccc5s4)n3n2)CC1` [Compound 119, 2-(4-(3-(benzo[b]thiophen-2-yl)imidazo[1,2-b]pyridazin-6-yl)piperazin-1-yl)ethanol] belongs above 5.30.
Under `OC[C@H]1CCCN1c1ccc2ncc(-c3cc4ccccc4s3)n2n1` [Compound 126, ((R)-1-(3-(benzo[b]thiophen-2-yl)imidazo[1,2-b]pyridazin-6-yl)pyrrolidin-2-yl)methanol] stands above 5.30; under `OC[C@@H]1CCCN1c1ccc2ncc(-c3cc4ccccc4s3)n2n1` [Compound 127, ((S)-1-(3-(benzo[b]thiophen-2-yl)imidazo[1,2-b]pyridazin-6-yl)pyrrolidin-2-yl)methanol], above 5.30.
For `COC(=O)C1CCCN(c2ccc3ncc(-c4cc5ccccc5s4)n3n2)C1` (stereo not drawn) [Compound 131, methyl 1-(3-(benzo[b]thiophen-2-yl)imidazo[1,2-b]pyridazin-6-yl)piperidine-3-carboxylate], the pIC50 was above 5.30.
Compound `OCC1CCCN(c2ccc3ncc(-c4cc5ccccc5s4)n3n2)C1` (stereo not drawn) [Compound 132, (1-(3-(benzo[b]thiophen-2-yl)imidazo[1,2-b]pyridazin-6-yl)piperidin-3-yl)methanol] had a pIC50 of 6.00 to 6.30.
The compound `OCCCCCNc1ccc2ncc(-c3cc4ccccc4s3)n2n1` [Compound 135, 5-(3-(benzo[b]thiophen-2-yl)imidazo[1,2-b]pyridazin-6-ylamino)pentan-1-ol] gave a pIC50 of 6.30 to 7.00.
Under `CN1CCN(CCCNc2ccc3ncc(-c4cc5ccccc5s4)n3n2)CC1` [Compound 136, 3-(benzo[b]thiophen-2-yl)-N-(3-(4-methylpiperazin-1-yl)propyl)imidazo[1,2-b]pyridazin-6-amine] stands above 5.30; under `CC(CO)CCNc1ccc2ncc(-c3cc4ccccc4s3)n2n1` (stereo not drawn) [Compound 138, 4-(3-(benzo[b]thiophen-2-yl)imidazo[1,2-b]pyridazin-6-ylamino)-2-methylbutan-1-ol], 6.30 to 7.00; under `OC[C@H]1CC[C@H](Nc2ccc3ncc(-c4cc5ccccc5s4)n3n2)CC1` [Compound 139], 6.30 to 7.00.
Under `CCCNc1ccc2ncc(-c3ccc4[nH]ccc4c3)n2n1` [Compound 140, 3-(1H-indol-5-yl)-N-propylimidazo[1,2-b]pyridazin-6-amine] stands above 5.30.
To `CC(C)CNc1ccc2ncc(-c3ccc4[nH]ccc4c3)n2n1` [Compound 142, 3-(1H-indol-5-yl)-N-isobutylimidazo[1,2-b]pyridazin-6-amine] belongs above 5.30.
The compound `c1cc2cc(-c3cnc4ccc(NCC5CC5)nn34)ccc2[nH]1` [Compound 150, N-(cyclopropylmethyl)-3-(1H-indol-5-yl)imidazo[1,2-b]pyridazin-6-amine] gave a pIC50 above 5.30.
To `CCCN(C)c1ccc2ncc(-c3ccc4[nH]ccc4c3)n2n1` [Compound 158, 3-(1H-indol-5-yl)-N-methyl-N-propylimidazo[1,2-b]pyridazin-6-amine] belongs above 5.30.
For the compound `OCCCCNc1ccc2ncc(-c3ccc4ccccc4c3)n2n1` [Compound 160, 4-(3-(naphthalen-3-yl)imidazo[1,2-b]pyridazin-6-ylamino)butan-1-ol], the pIC50 was 6.00 to 6.30.
Regarding `O[C@H]1CC[C@H](Nc2ccc3ncc(-c4ccc5ccccc5c4)n3n2)CC1` [Compound 161, trans-4-(3-(naphthalen-3-yl)imidazo[1,2-b]pyridazin-6-ylamino)cyclohexanol], the pIC50 was 6.30 to 7.00.
To `O[C@H]1CC[C@H](Nc2ccc3ncc(-c4ccc5cc(F)ccc5c4)n3n2)CC1` [Compound 162, trans-4-(3-(2-fluoronaphthalen-6-yl)imidazo[1,2-b]pyridazin-6-ylamino)cyclohexanol] belongs 6.00 to 6.30.
In the case of `COc1ccc2cc(-c3cnc4ccc(N[C@H]5CC[C@H](O)CC5)nn34)ccc2c1` [Compound 163, trans-4-(3-(2-methoxynaphthalen-6-yl)imidazo[1,2-b]pyridazin-6-ylamino)cyclohexanol], the pIC50 was 6.00 to 6.30.
Consider `Cc1c(-c2cnc3ccc(N[C@H]4CC[C@H](O)CC4)nn23)sc2ccc(Cl)cc12` [Compound 164, trans-4-(3-(5-chloro-3-methylbenzo[b]thiophen-2-yl)imidazo[1,2-b]pyridazin-6-ylamino)cyclohexanol], for which the pIC50 was 6.00 to 6.30.
To `O[C@H]1CC[C@H](Nc2ccc3ncc(-c4cc5cc(F)ccc5s4)n3n2)CC1` [Compound 166, trans-4-(3-(5-fluorobenzo[b]thiophen-2-yl)imidazo[1,2-b]pyridazin-6-ylamino)cyclohexanol] belongs 6.00 to 6.30; to `COc1ccc2sc(-c3cnc4ccc(Nc5ccc(OC)c(OC)c5)nn34)cc2c1` [Compound 167, 3-(5-methoxybenzo[b]thiophen-2-yl)-N-(3,4-dimethoxyphenyl)imidazo[1,2-b]pyridazin-6-amine], 6.30 to 7.00; to `COc1ccc2sc(-c3cnc4ccc(N[C@H]5CC[C@H](O)CC5)nn34)cc2c1` [Compound 168, trans-4-(3-(5-methoxybenzo[b]thiophen-2-yl)imidazo[1,2-b]pyridazin-6-ylamino)cyclohexanol], 6.30 to 7.00.
To `COc1cc2cc(-c3cnc4ccc(NCCC(C)CO)nn34)sc2cc1OC` (stereo not drawn) [Compound 171, 4-(3-(5,6-dimethoxybenzo[b]thiophen-2-yl)imidazo[1,2-b]pyridazin-6-ylamino)-2-methylbutan-1-ol] belongs above 7.00.
Consider `COc1ccc2cc(-c3cnc4ccc(N[C@H]5CC[C@H](O)CC5)nn34)sc2c1` [Compound 172, trans-4-(3-(6-methoxybenzo[b]thiophen-2-yl)imidazo[1,2-b]pyridazin-6-ylamino)cyclohexanol], for which the pIC50 is 6.30 to 7.00.
Under `COc1cc2cc(-c3cnc4ccc(N[C@H]5CC[C@](C)(O)CC5)nn34)sc2cc1OC` [Compound 173, (1r,4r)-4-(3-(5,6-dimethoxybenzo[b]thiophen-2-yl)imidazo[1,2-b]pyridazin-6-ylamino)-1-methylcyclohexanol] stands above 7.00; under `COc1cc2sc(-c3cnc4ccc(N[C@H]5CC[C@H](O)CC5)nn34)cc2c(OC)c1OC` [Compound 176, trans-4-(3-(4,5,6-trimethoxybenzo[b]thiophen-2-yl)imidazo[1,2-b]pyridazin-6-ylamino)cyclohexanol], 6.30 to 7.00; under `COc1cc2cc(-c3cnc4ccc(N(C)[C@H]5CC[C@H](O)CC5)nn34)sc2cc1OC` [Compound 177, trans-4-(N-(3-(5,6-dimethoxybenzo[b]thiophen-2-yl)imidazo[1,2-b]pyridazin-6-yl)-N-methylamino)cyclohexanol], above 7.00.
`CC(C)Oc1cccc2cc(-c3cnc4ccc(N[C@H]5CC[C@H](O)CC5)nn34)sc12` [Compound 178, trans-4-(3-(7-isopropoxybenzo[b]thiophen-2-yl)imidazo[1,2-b]pyridazin-6-ylamino)cyclohexanol] showed a pIC50 of 6.30 to 7.00.
With `COc1cc2cc(-c3cnc4ccc(N[C@H]5CC[C@H](O)CC5)nn34)sc2c(OC)c1OC` [Compound 179, trans-4-(3-(5,6,7-trimethoxybenzo[b]thiophen-2-yl)imidazo[1,2-b]pyridazin-6-ylamino)cyclohexanol], the pIC50 was above 7.00.
To `O[C@H]1CC[C@H](Nc2ccc3ncc(-c4ccsc4)n3n2)CC1` [Compound 180, trans-(3-(thiophen-3-yl)imidazo[1,2-b]pyridazin-6-ylamino)cyclohexanol] belongs above 5.30; to `CCOc1ccc(Nc2ccc3ncc(-c4cc5cccc(OC)c5s4)n3n2)cc1OC` [Compound 181, N-(4-ethoxy-3-methoxyphenyl)-3-(7-methoxybenzo[b]thiophen-2-yl)imidazo[1,2-b]pyridazin-6-amine], 6.30 to 7.00; to `CCCOc1ccc(Nc2ccc3ncc(-c4cc5cccc(OC)c5s4)n3n2)cc1OC` [Compound 182, N-(3-methoxy-4-propoxyphenyl)-3-(7-methoxybenzo[b]thiophen-2-yl)imidazo[1,2-b]pyridazin-6-amine], above 5.30.
On to `COc1cc(Nc2ccc3ncc(-c4cc5cccc(OC)c5s4)n3n2)ccc1OC(F)F` [Compound 183, N-(4-(difluoromethoxy)-3-methoxyphenyl)-3-(7-methoxybenzo[b]thiophen-2-yl)imidazo[1,2-b]pyridazin-6-amine], for which the pIC50 is above 5.30.
To `COc1cc(Nc2ccc3ncc(-c4cc5cccc(OC)c5s4)n3n2)ccc1OC(F)(F)F` [Compound 184, N-(3-methoxy-4-(trifluoromethoxy)phenyl)-3-(7-methoxybenzo[b]thiophen-2-yl)imidazo[1,2-b]pyridazin-6-amine] belongs above 5.30.
To `COc1ccc(Nc2ccc3ncc(-c4cc5cccc(OC)c5s4)n3n2)cc1OC(F)(F)F` [Compound 185, N-(4-methoxy-3-(trifluoromethoxy)phenyl)-3-(7-methoxybenzo[b]thiophen-2-yl)imidazo[1,2-b]pyridazin-6-amine] belongs above 5.30; to `CCOc1cccc2cc(-c3cnc4ccc(Nc5ccc(OC)c(OC)c5)nn34)sc12` [Compound 186, 3-(7-ethoxybenzo[b]thiophen-2-yl)-N-(3,4-dimethoxyphenyl)imidazo[1,2-b]pyridazin-6-amine], 6.30 to 7.00.
